Inhibition data for 17 compounds are collected here from patent US8106055B2, “Substituted amide compounds” (Gruenenthal GmbH, priority 2007, dated 2012).

For assay [1], the target named is T1, human bradykinin 1 receptor (B1R) (Homo sapiens, UniProt P46663).
T1 construct: expressed in transfected cells; host or cells: CHO K1 cells
T1 sequence (P46663 1-353): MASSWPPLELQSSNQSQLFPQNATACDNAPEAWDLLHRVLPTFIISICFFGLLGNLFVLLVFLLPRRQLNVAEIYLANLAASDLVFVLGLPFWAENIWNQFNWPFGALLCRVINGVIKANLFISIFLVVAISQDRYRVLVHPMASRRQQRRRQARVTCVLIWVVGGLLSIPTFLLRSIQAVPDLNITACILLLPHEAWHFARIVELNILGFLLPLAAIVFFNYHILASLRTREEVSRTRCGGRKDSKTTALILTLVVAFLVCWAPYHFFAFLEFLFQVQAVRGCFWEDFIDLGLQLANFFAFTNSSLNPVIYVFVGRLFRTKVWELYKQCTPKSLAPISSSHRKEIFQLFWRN
Kind of assay: Functional investigation on the human bradykinin 1 receptor (B1R), Ca2+ FLIPR assay in CHO K1 hB1R cells. Conditions: CHO-K1, B1R antagonism human; test substance 10 μM; Ca2+ FLIPR, CHO K1 hB1R cells; read-out: B1R Ant. h [10 μM] % Inhibition. It is filed as cell-based. In a few lines: (§1)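 Peak Ca2+-dependent fluorescence in B1R-transfected CHO K1 cells measures antagonism of an EC80 agonist challenge given 10-20 min after compound. Agonist is Lys-Des-Arg9-bradykinin for human, Des-Arg9-bradykinin for rat receptor.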

Assay [2] has as its target T2, bradykinin 1 receptor (B1R) of the rat (Rattus norvegicus, UniProt P97583).
T2 construct: expressed in transfected cells; host or cells: CHO K1 cells
T2 sequence (P97583 1-337): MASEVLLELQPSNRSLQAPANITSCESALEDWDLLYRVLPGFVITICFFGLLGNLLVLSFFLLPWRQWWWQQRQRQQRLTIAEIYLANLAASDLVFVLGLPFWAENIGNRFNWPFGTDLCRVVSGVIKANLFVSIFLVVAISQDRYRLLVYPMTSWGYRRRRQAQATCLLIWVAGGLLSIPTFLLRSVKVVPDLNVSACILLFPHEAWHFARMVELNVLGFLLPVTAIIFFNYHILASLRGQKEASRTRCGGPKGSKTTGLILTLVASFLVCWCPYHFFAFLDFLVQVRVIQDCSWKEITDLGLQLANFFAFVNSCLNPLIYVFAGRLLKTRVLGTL
Kind of assay: Functional investigation on the rat bradykinin 1 receptor (B1R), Ca2+ FLIPR assay in CHO K1 rB1R cells. Type of assay: cell-based. As to conditions: CHO-K1, B1R antagonism rat; test substance 10 μM; Ca2+ FLIPR, CHO K1 rB1R cells; read-out: B1R Ant. r [10 μM] % Inhibition. In a few lines:
as §1

The target of assay [3] is T3, human μ opiate receptor (Homo sapiens, UniProt P35372).
T3 construct: purchased PerkinElmer Life Sciences, Zaventem, Belgium RB-HOM; host or cells: CHO-K1 cells (membrane preparation)
T3 sequence (P35372 whole entry): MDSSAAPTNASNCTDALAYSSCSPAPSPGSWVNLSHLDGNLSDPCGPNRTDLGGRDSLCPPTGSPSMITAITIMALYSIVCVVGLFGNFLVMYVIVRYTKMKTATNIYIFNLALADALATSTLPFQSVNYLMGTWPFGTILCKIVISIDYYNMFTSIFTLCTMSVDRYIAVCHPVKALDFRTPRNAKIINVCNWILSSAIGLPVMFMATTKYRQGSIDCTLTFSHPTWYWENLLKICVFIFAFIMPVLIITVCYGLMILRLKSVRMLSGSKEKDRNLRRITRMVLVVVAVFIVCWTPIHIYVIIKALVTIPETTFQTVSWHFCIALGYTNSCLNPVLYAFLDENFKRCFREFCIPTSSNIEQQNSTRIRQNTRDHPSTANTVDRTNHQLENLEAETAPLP
Kind of assay: Affinity for the human μ opiate receptor ([3H]-naloxone displacement, CHO-K1 receptor membrane preparation, SPA). Type of assay: binding. As to conditions: 1.5 h, test concentration 1 μM. In a few lines:
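At 1 μmol/l, compounds were scored for % displacement of 1 nmol/l [3H]-naloxone from CHO-K1-expressed human μ opiate receptor in a homogeneous SPA format (90 min, room temperature).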

[4] abbreviates: Table 3, to be read in the same way as Table 1, read-out: μ.

Where two headings read alike, the source gives them in different places.

As for `COc1cc(C)c(S(=O)(=O)N2CCCC(COCC(=O)NCC3CCC(C(c4ccccc4)N4CCOCC4)CC3)C2)c(C)c1` (stereo not drawn) [Example 744, 2-((1-(4-methoxy-2,6-dimethylphenylsulfonyl)piperidin-3-yl)methoxy)-N-((4-(morpholino(phenyl)methyl)cyclohexyl)methyl)acetamide], the inhibition at 10 µM in assay [1] amounted to 18%; in assay [2] it was 40%. For the same compound, in assay [3] (setting [4]), the inhibition at 1 µM came to 13%.
The like results for `O=C(COCC1CCCN(S(=O)(=O)c2c(Cl)cc(Cl)cc2Cl)C1)NC1CCC(C(CCc2ccccc2)N2CCOCC2)CC1` (stereo not drawn) [Example 741, N-(4-(1-morpholino-3-phenylpropyl)cyclohexyl)-2-((1-(2,4,6-trichlorophenylsulfonyl)piperidin-3-yl)methoxy)acetamide] were, in that order, -5%, 46% and 16%.
`O=C(COCC1CCCN1S(=O)(=O)c1c(Cl)cc(Cl)cc1Cl)NCC1CCC(C(CCc2ccccc2)N2CCCC2)CC1` (stereo not drawn) [Example 752, N-((4-(3-phenyl-1-(pyrrolidin-1-yl)propyl)cyclohexyl)methyl)-2-((1-(2,4,6-trichlorophenylsulfonyl)pyrrolidin-2-yl)methoxy)acetamide]: the inhibition at 10 µM in assay [1] was found to be 103%; in assay [2] it was 104%. The inhibition at 1 µM in assay [3] (setting [4]) was 82%.
Take `COc1cc(C)c(S(=O)(=O)N2CCC(OCC(=O)NC3CCC(C(c4ccccc4)N4CCOCC4)CC3)C2)c(C)c1` (stereo not drawn) [Example 687, 2-(1-(4-methoxy-2,6-dimethylphenylsulfonyl)pyrrolidin-3-yloxy)-N-(4-(morpholino(phenyl)methyl)cyclohexyl)acetamide]: the inhibition at 10 µM came to 48% in assay [1] and 88% in assay [2]. Also, the inhibition at 1 µM in assay [3] (setting [4]) amounted to 6%.
The like results for `CN1CCN(C(c2ccccc2)C2CCC(NC(=O)COCC3CCCN(S(=O)(=O)c4c(Cl)cc(Cl)cc4Cl)C3)CC2)CC1` (stereo not drawn) [Example 742, N-(4-((4-methylpiperazin-1-yl)(phenyl)methyl)cyclohexyl)-2-((1-(2,4,6-trichlorophenylsulfonyl)piperidin-3-yl)methoxy)acetamide] were, in that order, 36%, 53% and 29%.
Consider `CN1CCN(C(c2ccccc2)C2CCC(NC(=O)COCC3CCCN3S(=O)(=O)c3c(Cl)cc(Cl)cc3Cl)CC2)CC1` (stereo not drawn) [Example 732, N-(4-((4-methylpiperazin-1-yl)(phenyl)methyl)cyclohexyl)-2-((1-(2,4,6-trichlorophenylsulfonyl)pyrrolidin-2-yl)methoxy)acetamide], for which the inhibition at 10 µM worked out at 100% in assay [1] and 84% in assay [2]. Further, the inhibition at 1 µM in assay [3] (setting [4]) came to 61%.
For the compound `COc1cc(C)c(S(=O)(=O)N2CCCC2COCC(=O)NC2CCC(C(c3ccccc3)N3CCN(C)CC3)CC2)c(C)c1` (stereo not drawn) [Example 695, 2-((1-(4-methoxy-2,6-dimethylphenylsulfonyl)pyrrolidin-2-yl)methoxy)-N-(4-((4-methylpiperazin-1-yl)(phenyl)methyl)cyclohexyl)acetamide], the inhibition at 10 µM in assay [1] and in assay [2] was 103% throughout. In addition, the inhibition at 1 µM in assay [3] (setting [4]) was 27%.
Consider `COc1cc(C)c(S(=O)(=O)N(C)CCOCC(=O)NC2CCC(C(c3ccccc3)N3CCCCC3)CC2)c(C)c1C` (stereo not drawn) [Example 617, 2-{2-[(4-methoxy-2,3,6-trimethylbenzenesulfonyl)-methylamino]-ethoxy}-N-[4-(phenylpiperidin-1-yl-methyl)-cyclohexyl]-acetamide], for which the inhibition at 10 µM in assay [1] was found to be 86%; in assay [2], 48%. Besides, the inhibition at 1 µM in assay [3] (Table 2, read-out: μ receptor) came to 29%.
Consider `CN(C)C(Cc1ccccc1)C1CCC(NC(=O)COCCN(C)S(=O)(=O)c2c(Cl)cc(Cl)cc2Cl)CC1` (stereo not drawn) [Example 616, N-[4-(1-dimethylamino-2-phenylethyl)-cyclohexyl]-2-{2-[methyl-(2,4,6-trichlorobenzenesulfonyl)-amino]-ethoxy}-acetamide], for which the inhibition at 10 µM is 100% in assay [1] and 43% in assay [2]. The inhibition at 1 µM in assay [3] (Table 2, read-out: μ receptor) turned out to be 64%.
In the case of `COc1cc(C)c(S(=O)(=O)N2CCCCC2COCC(=O)NC2CCC(C(c3ccccc3)N3CCOCC3)CC2)c(C)c1` (stereo not drawn) [Example 699, 2-((1-(4-methoxy-2,6-dimethylphenylsulfonyl)piperidin-2-yl)methoxy)-N-(4-(morpholino(phenyl)methyl)cyclohexyl)acetamide], the inhibition at 10 µM worked out at 90% in assay [1] and 104% in assay [2]. In assay [3] (setting [4]), the inhibition at 1 µM came out at 15%.
For `CN(CCOCC(=O)NCC1CCC(C(CCc2ccccc2)N2CCOCC2)CC1)S(=O)(=O)c1ccc(Cl)cc1Cl` (stereo not drawn) [Example 716, 2-(2-(2,4-dichloro-N-methylphenylsulfonamido)ethoxy)-N-((4-(1-morpholino-3-phenylpropyl)cyclohexyl)methyl)acetamide], the inhibition at 10 µM stood at 59% in assay [1] and 31% in assay [2]. Further, the inhibition at 1 µM in assay [3] (setting [4]) worked out at 13%.
In the case of `CN(CCOCC(=O)NC1CCC(C(c2ccccc2)N2CCOCC2)CC1)S(=O)(=O)c1c(Cl)cc(C(F)(F)F)cc1Cl` (stereo not drawn) [Example 689, 2-(2-(2,6-dichloro-N-methyl-4-(trifluoromethyl)phenylsulfonamido)ethoxy)-N-(4-(morpholino(phenyl)methyl)cyclohexyl)acetamide], the figures for the inhibition at 10 µM in assay [1] and in assay [2] were 22% and 39%, respectively. Also, in assay [3] (setting [4]), the inhibition at 1 µM was 6%.
On to `COc1cc(C)c(S(=O)(=O)N2CCCC(OCC(=O)NCC3CCC(C(CCc4ccccc4)N4CCOCC4)CC3)C2)c(C)c1` (stereo not drawn) [Example 748, 2-(1-(4-methoxy-2,6-dimethylphenylsulfonyl)piperidin-3-yloxy)-N-((4-(1-morpholino-3-phenylpropyl)cyclohexyl)methyl)acetamide], for which the figures for the inhibition at 10 µM in assay [1] and in assay [2] were 92% and 78%, respectively. The inhibition at 1 µM in assay [3] (setting [4]) came out at 20%.
Take `COc1cc(C)c(S(=O)(=O)N(C)CCOCC(=O)NC2CCC(C(c3ccccc3)N3CCOCC3)CC2)c(C)c1C` (stereo not drawn) [Example 619, 2-{2-[(4-methoxy-2,3,6-trimethylbenzenesulfonyl)-methylamino]-ethoxy}-N-[4-(morpholin-4-yl-phenylmethyl)-cyclohexyl]-acetamide]: the results for the inhibition at 10 µM in assay [1] and in assay [2] were 56% and 12%, respectively. Further, in assay [3] (Table 2, read-out: μ receptor), the inhibition at 1 µM was -11%.
For the compound `COc1cc(C)c(S(=O)(=O)N2CCCC(OCC(=O)NCC3CCC(C(c4ccccc4)N4CCOCC4)CC3)C2)c(C)c1` (stereo not drawn) [Example 730, 2-(1-(4-methoxy-2,6-dimethylphenylsulfonyl)piperidin-3-yloxy)-N-((4-(morpholino(phenyl)methyl)cyclohexyl)methyl)acetamide], the inhibition at 10 µM is 46% in assay [1] and 38% in assay [2]. Besides, the inhibition at 1 µM in assay [3] (setting [4]) worked out at 11%.
Turning to `COc1cc(C)c(S(=O)(=O)N(C)CCOCC(=O)NC2CCC(C(c3ccccc3)N3CCCC3)CC2)c(C)c1C` (stereo not drawn) [Example 618, 2-{2-[(4-methoxy-2,3,6-trimethylbenzenesulfonyl)-methylamino]-ethoxy}-N-[4-(phenylpyrrolidin-1-yl-methyl)-cyclohexyl]-acetamide], the inhibition at 10 µM is 95% in assay [1] and 3% in assay [2]. For the same compound, in assay [3] (Table 2, read-out: μ receptor), the inhibition at 1 µM was found to be 43%.
As for `COc1cc(C)c(S(=O)(=O)N2CCCC2COCC(=O)NCC2CCC(C(c3ccccc3)N3CCOCC3)CC2)c(C)c1` (stereo not drawn) [Example 709, 2-((1-(4-methoxy-2,6-dimethylphenylsulfonyl)pyrrolidin-2-yl)methoxy)-N-((4-(morpholino(phenyl)methyl)cyclohexyl)methyl)acetamide], the inhibition at 10 µM in assay [1] was 82%; in assay [2] it was 104%. The inhibition at 1 µM in assay [3] (setting [4]) was 8%.
